Assay results from the OPERA property sets (Mansouri et al. 2018).
Converted amounts (≈) assume the structure as drawn. Each block holds one compound with its values, some of them ahead of it.

logP: 5.03 | solubility (25 °C): 0.00176 mM (≈ 0.59 µg/mL)
SMILES: CCCCCC(C)OC(=O)COc1ccc(Cl)c2cccnc12 (centres undefined)

SMILES: CCOP(=O)(SC(C)CC)SC(C)CC (centres undefined)
logP: 3.9 | solubility (25 °C): 0.917 mM (≈ 248 µg/mL)

solubility (20 °C): 0.173 mM (≈ 47 µg/mL)
SMILES: CCOC(=O)Cn1c(=O)sc2cccc(Cl)c21

SMILES: CCOc1ccccc1OS(=O)(=O)NC(O)=Nc1nc(OC)cc(OC)n1
logP: 2.89 | solubility (pH 5.0, 20 °C): 0.0653 mM (≈ 26 µg/mL)

SMILES: CCC1(CC2(c3cccc(Cl)c3)CO2)C(=O)c2ccccc2C1=O (centres undefined)
solubility (25 °C): 0.0411 mM (≈ 14 µg/mL)

SMILES: COc1cc(OC)nc(Sc2cccc(Cl)c2C(=O)[O-])n1.[Na+]
logD (pH 5.0): 0.6

SMILES: CCNc1nc(Cl)nc(NCC)n1
solubility (20 °C): 0.046 mM (≈ 9.28 µg/mL)

SMILES: COC(C)(C)CCCC(C)C/C=C/C(C)=C/C(=O)OC(C)C (centres undefined)
solubility: 0.00451 mM (≈ 1.4 µg/mL)

solubility (20 °C): 0.00134 mM (≈ 0.58 µg/mL)
SMILES: CCOCCOC(=O)C(C)Oc1ccc(Oc2ncc(C(F)(F)F)cc2Cl)cc1 (centres undefined)

SMILES: O=C1C2CC=CCC2C(=O)N1SC(Cl)(Cl)Cl (centres undefined)
logP: 2.8

SMILES: O=C([O-])C(F)(F)C(F)F.[Na+]
logP: 1.32 | solubility (20 °C): 131 mM

logP: 2.04 | solubility (20 °C): 0.137 mM (≈ 34 µg/mL)
SMILES: O=[n+]1[n-]c(-n2ccnc2)nc2ccc(Cl)cc21

SMILES: CC1(C)CCC(Cc2ccc(Cl)cc2)C1(O)Cn1cncn1 (centres undefined)
logP: 3.85

SMILES: CCC(C)Nc1c([N+](=O)[O-])cc(C(C)(C)C)cc1[N+](=O)[O-] (centres undefined)
logP: 4.93

SMILES: CCSCCSP(=S)(OC)OC
logP: 3.15

SMILES: O=CNC(N1CCN(C(NC=O)C(Cl)(Cl)Cl)CC1)C(Cl)(Cl)Cl (centres undefined)
logP: 2.2

SMILES: C=C/C=C\CC1=C(C)[C@@H](OC(=O)[C@@H]2[C@@H](C=C(C)C)C2(C)C)CC1=O
logP: 5.9

SMILES: Cc1cccc(C)c1N(Cn1cccn1)C(=O)CCl
logP: 2.13

SMILES: COc1ccc(-c2ccccc2)cc1NNC(=O)OC(C)C
solubility (20 °C): 0.0125 mM (≈ 3.76 µg/mL)

logP: 3.69
SMILES: CC(C)OC(=O)[C@@H](C)N(C(=O)c1ccccc1)c1ccc(F)c(Cl)c1

SMILES: CCNP(=S)(OC)O/C(C)=C/C(=O)OC(C)C (centres undefined)
logP: 3.82

SMILES: O=C(NC(=O)c1ccccc1Cl)Nc1ccc(OC(F)(F)F)cc1
logP: 4.91 | solubility (20 °C): 6.97e-05 mM (≈ 0.025 µg/mL)

SMILES: CC(Oc1ccc(Oc2ncc(C(F)(F)F)cc2Cl)cc1)C(=O)O (centres undefined)
solubility (pH 2.6, 25 °C): 0.12 mM (≈ 43.4 µg/mL)

SMILES: CCCN(CCC)c1c([N+](=O)[O-])cc(C(F)(F)F)cc1[N+](=O)[O-]
solubility (pH 5.0, 25 °C): 0.000701 mM (≈ 0.235 µg/mL)

solubility (pH 7.0, 20 °C): 4780 mM (≈ 900000 µg/mL)
SMILES: CCCOC(=O)NCCCN(C)C

SMILES: COc1cc(OC)nc(Oc2cccc(Oc3nc(OC)cc(OC)n3)c2C(=O)[O-])n1.[Na+]
logP: -1.03

logP: 1.89
SMILES: O=C(Nc1ccc(Cl)c(Cl)c1)Nc1cc(Cl)ccc1Oc1ccc(Cl)cc1S(=O)(=O)[O-].[Na+]

logP: 3.95 | solubility (20 °C): 0.00108 mM (≈ 0.37 µg/mL)
SMILES: C#CCOc1cc(-n2nc(C(C)(C)C)oc2=O)c(Cl)cc1Cl

SMILES: FC(F)C(F)(F)OCC(Cn1cncn1)c1ccc(Cl)cc1Cl (centres undefined)
logP: 3.56

SMILES: CC(C)Oc1cccc(NC(=O)c2ccccc2C(F)(F)F)c1
solubility (20 °C): 0.0244 mM (≈ 7.88 µg/mL)

SMILES: CCNc1nc(Cl)nc(NC(C)(C)C)n1
logP: 3.21 | solubility (pH 7.0, 20 °C): 0.0396 mM (≈ 9.09 µg/mL)

SMILES: CCOP(=O)(SC(C)CC)N1CCSC1=O (centres undefined)
logP: 1.68

SMILES: CCCN(CC)CC1COC2(CCC(C(C)(C)C)CC2)O1 (centres undefined)
solubility (pH 7.0, 20 °C): 1.58 mM (≈ 470 µg/mL)

SMILES: OC(c1ccc(Cl)cc1)(c1ccc(Cl)cc1)C(Cl)(Cl)Cl
solubility (25 °C): 0.00277 mM (≈ 1.03 µg/mL)

SMILES: CS/C(C)=N/OC(=O)N(C)SN(C)C(=O)O/N=C(\C)SC
solubility (25 °C): 0.0729 mM (≈ 25.8 µg/mL)

solubility (20 °C): 0.123 mM (≈ 40 µg/mL)
SMILES: CCCC(=NOCC)C1=C(O)CC(C2CCCSC2)CC1=O (centres undefined)

SMILES: C#CC(OC(=O)C1C(C=C(C)C)C1(C)C)/C(C)=C/CC (centres undefined)
solubility (25 °C): 0.000404 mM (≈ 0.111 µg/mL)

SMILES: N#Cc1c(Cl)cccc1Cl
solubility (20 °C): 0.105 mM (≈ 18 µg/mL)

logP: 4.05
SMILES: CCSC(=O)COc1ccc(Cl)cc1C

SMILES: CC#Cc1cc(C)nc(Nc2ccccc2)n1
logP: 3.28

SMILES: CC(C)(C)c1cc([N+](=O)[O-])cc([N+](=O)[O-])c1O
solubility (pH 5.0, 20 °C): 0.0187 mM (≈ 4.5 µg/mL)

SMILES: O=c1oc2ccccc2c(O)c1C1CC(c2ccc(-c3ccc(Br)cc3)cc2)Cc2ccccc21 (centres undefined)
logP: 8.5

logP: 1.39 | solubility (20 °C): 0.518 mM (≈ 146 µg/mL)
SMILES: Cc1cccc(C)c1N(C(=O)CCl)C1CCOC1=O (centres undefined)

SMILES: CNC(=O)Oc1cccc(N=CN(C)C)c1.Cl
solubility (25 °C): 3190 mM

SMILES: CCOP(=S)(Oc1cnc(C(C)(C)C)nc1)OC(C)C (centres undefined)
solubility (pH 7.0, 20 °C): 0.0173 mM (≈ 5.5 µg/mL)

SMILES: C=CCC1=C(C)C(OC(=O)C2C(C=C(C)C)C2(C)C)CC1=O (centres undefined)
solubility (25 °C): 0.0152 mM (≈ 4.6 µg/mL)

solubility (20 °C): 0.0829 mM (≈ 20 µg/mL)
SMILES: O=C(O)c1ccccc1C(=O)Nc1ccccc1

SMILES: Nc1c(Cl)cc([N+](=O)[O-])cc1Cl
logP: 2.8

SMILES: Clc1ccc(CSC(Cn2cncn2)=Nc2ccc(Cl)cc2Cl)cc1
logP: 4.94

SMILES: C/C=C(\C)C(=O)O[C@H]1C[C@@H](OC(C)=O)[C@@]2(C(=O)OC)CO[C@H]3[C@@H](O)[C@@](C)([C@]45O[C@@]4(C)[C@H]4C[C@@H]5O[C@@H]5OC=C[C@@]54O)[C@H]4[C@]1(CO[C@]4(O)C(=O)OC)[C@@H]32
logP: 1.09

logP: 1.34
SMILES: O=C(O)Cn1c(=O)sc2cccc(Cl)c21

SMILES: CNC(=O)N(C)c1nnc(C(C)(C)C)s1
solubility (25 °C): 10.5 mM (≈ 2400 µg/mL)

logD (pH 2.0): 1.8 | solubility (pH 5.0, 20 °C): 5.8 mM (≈ 1300 µg/mL)
SMILES: O=C1CC(C(=O)O)CC(=O)C1=C(O)C1CC1 (centres undefined)

SMILES: CC(C)OC(=O)C(O)(c1ccc(Br)cc1)c1ccc(Br)cc1
logP: 5.4

SMILES: CCOc1ccc(C(C)(C)COCc2cccc(Oc3ccccc3)c2)cc1
solubility (25 °C): < 2.66e-06 mM

SMILES: COP(=O)(OC)SCn1c(=O)oc2cc(Cl)cnc21
logP: 1.05

SMILES: CCCOCCN(C(=O)CCl)c1c(CC)cccc1CC
logP: 4.08 | solubility (20 °C): 0.16 mM (≈ 50 µg/mL)

SMILES: Cc1ccc(NC(O)=NC(C)(C)c2ccccc2)cc1
solubility (20 °C): 0.00447 mM (≈ 1.2 µg/mL)
